Experimental data taken from patent publication US6169076A, “P-Boronophenylalanine complexes with fructose and related carbohydrates and polyols” (Glcosyn Pharmaceuticals, Inc., priority 1999, dated 2001).
≈ marks a conversion by molar mass, not a printed value. Counter-ions that a name gives are not always drawn.

Key:
[1] = Complex formation constants of p-BPA with carbohydrates and polyols, by integration of aryl protons in the 1H NMR spectrum (D2O, pH buffered at 7.4); assay type: physicochemical; conditions: for log Keq (complex formation constant, monosaccharides) / log Keq (complex formation constant, disaccharides) / log Keq (complex formation constant, polyols): L-p-BPA, 1H NMR, D2O, pH buffered at 7.4; for difference in binding constants: maltulose, lactulose and fructose compared; for decrease in the pKeq values of these complexes: C-6 hydroxyl eliminated from binding, relative to fructose; for decrease in binding: C-3 hydroxyl unavailable; for binding with l-p-BPA / change in the 1H NMR spectrum of l-p-BPA: in words
From the text: (§1) The ratio of free p-BPA to p-BPA:carbohydrate complex can be determined by integration of the aromatic protons resonances (p-BPA, 7.73 and 7.33 ppm; p-BPA-carbohydrate complex, 7.5 and 7.2 ppm) in the ^1 H NMR spectrum using D2 O buffered to physiological pH as the solvent. A minimum of five measurements for each carbohydrate at various concentrations and p-BPA:carbohydrate ratios were taken, and the equilibrium constant calculated (Table 1 and Table 2). Likewise, complex formation constants for p-BPA and some polyols have been calculated (Table 3).
^a All values were determined for L-p-BPA by integration of aryl
protons in the ^j H NMR spectrum (D2 O, pH buffered at 7.4).
^a All values were determined for L-p-BPA by intergration of aryl
protons in the ^l H NMR spectrum (D2 O, pH buffered at 7.4).
The strong correspondence between the NMR data obtained for the l-p-BPA-fructose complex at physiological pH and one of the complexes (e.g., as observed for p-tolylboronic acid with fructose at pD 11-12) was further investigated by a systematic study of the binding ability of fructose-containing disaccharides (Table 2). […] However, the presence of the added 4-O-glucosyl or galactosyl group had no positive effect on binding either.
While the hydroxyl at C-3 for turanose is eliminated from binding due to the presence of the glucosyl moiety, the C-3 hydroxyl of leucrose is also unavailable for binding due to a likely significant contribution from the conformation that places the glucosyl unit in an equatorial position, resulting in a diaxial orientation between the anomeric C-2 hydroxyl and C-3 hydroxyl axial. Loss in binding ability for leucrose can also be attributed to the fructose unit being locked in the less favored pyranose ring form.

[2] = Hydration of the freeze-dried solid with warm water and standing at room temperature; assay type: physicochemical
Experimental: ^10 B enriched l-p-boronophenylalanine (0.520 g) and d-fructose (0.473 g) was suspended in distilled water (3 mL), and l-p-boronophenylalanine was dissolved by addition of 0.5 M NaOH (5.3 mL) with gentle heating. The pH of this solution is typically between 8.5 and 9.0. […] The solution is removed from the resin, and any l-p-boronophenylalanine that is suspended can be redissolved with gentle warming of the solution. The room temperature solution was then filtered through a 0.2μ filter and then freeze-dried to give sodium l-p-boronophenylalanine-d-fructose complex (0.934 g). […] M.p. 90-93° C.

[3] = 0.1 M solution; cited from earlier work
[4] = patients injected with p-BPA solution of this acidity; cited from earlier work
[5] = solution from current methods, roughly one equivalent of NaCl; cited from earlier work
[6] = intravenous; solution from current methods; cited from earlier work
murine melanoma model = conditions: systemic administration; cited from earlier work
[7] = cited from earlier work
[8] = State of p-BPA in solution at pH 7.4 with strongly complexing or excess carbohydrate/polyol; assay type: physicochemical
From the text: as §1

melanoma cells = conditions: in words; cited from earlier work

O=C(CO)[C@@H](O)[C@H](O)[C@H](O)CO [Fructose]
log Keq (complex formation constant, monosaccharides) [1]: 3.2 | difference in binding constants [1]: lack of appreciable difference in binding constants

[NH3+][C@@H](Cc1ccc([B-]23OC[C@H]4O[C@@](CO)(O2)[C@@H](O3)[C@@H]4O)cc1)C(=O)O [sodium l-p-boronophenylalanine-d-fructose complex]
stability of the hydrated solution (remains dissolved) ([2]; prolonged standing (i.e., 48 hrs) at room temperature): remains completely dissolved | solubility ([2]; warm water, 60° C.): ~100 mg/mL

O=C(CO)[C@H](O)[C@@H](O)[C@H](O)CO [Sorbose]
decrease in the pKeq values of these complexes [1]: 0.5 pKeq | log Keq (complex formation constant, monosaccharides) [1]: 2.7

NC(Cc1ccc(B(O)O)cc1)C(=O)O (centres unmarked) [hydrochloric acid salts of p-BPA]
pH value of solution [3]: approximately 1.5 | pain on injection [4]: causes pain

OC[C@H]1O[C@H](O[C@@H]2COC(O)(CO)[C@@H](O)[C@@H]2O)[C@H](O)[C@@H](O)[C@@H]1O (some centres unmarked) [Leucrose]
decrease in binding [1]: 1.5 pKeq | log Keq (complex formation constant, disaccharides) [1]: 1.7

O=C[C@@H](O)[C@@H](O)[C@H](O)[C@H](O)CO [Mannose]
log Keq (complex formation constant, monosaccharides) [1]: 1.3

O=C[C@H](O)[C@H](O)[C@H](O)CO [Ribose]
log Keq (complex formation constant, monosaccharides) [1]: 1.8

OC[C@@H](O)[C@@H](O)[C@@H](O)CO [Adonitol]
log Keq (complex formation constant, polyols) [1]: 1.7

OC[C@H]1O[C@@](CO)(O[C@H]2O[C@H](CO)[C@@H](O)[C@H](O)[C@H]2O)[C@@H](O)[C@@H]1O [sucrose]
binding with l-p-BPA [1]: complete lack of binding | change in the 1H NMR spectrum of l-p-BPA [1]: no change

O=C[C@H](O)[C@@H](O)[C@H](O)[C@H](O)CO [Glucose]
log Keq (complex formation constant, monosaccharides) [1]: 1.4

Maltulose
log Keq (complex formation constant, disaccharides) [1]: 3.1 | difference in binding constants [1]: lack of appreciable difference in binding constants

CO[C@@H]1O[C@H](CO)[C@H](O)[C@H](O)[C@H]1O [methyl-β-galactopyranoside]
binding with l-p-BPA [1]: complete lack of binding | change in the 1H NMR spectrum of l-p-BPA [1]: no change

OC[C@H]1O[C@H](OC[C@H]2OC(O)(CO)[C@@H](O)[C@@H]2O)[C@H](O)[C@@H](O)[C@@H]1O (some centres unmarked) [Palatinose]
decrease in the pKeq values of these complexes [1]: 0.5 pKeq | log Keq (complex formation constant, disaccharides) [1]: 2.6

OC[C@H]1O[C@@H](O[C@@H]2[C@@H](CO)OC(O)(CO)[C@H]2O)[C@H](O)[C@@H](O)[C@H]1O (mixture of isomers) [Lactulose]
log Keq (complex formation constant, disaccharides) [1]: 3.0 | difference in binding constants [1]: lack of appreciable difference in binding constants

O=C(CO)[C@@H](O[C@H]1O[C@H](CO)[C@@H](O)[C@H](O)[C@H]1O)[C@H](O)[C@H](O)CO [Turanose]
decrease in binding [1]: 1.5 pKeq | log Keq (complex formation constant, disaccharides) [1]: 1.6

[NH3+]C(Cc1ccc([B-]23OC[C@H]4O[C@@](CO)(O2)[C@@H](O3)[C@@H]4O)cc1)C(=O)O (some centres unmarked) [p-BPA-fructose complex]
osmotic property of solution [5]: greatly exceeding its iso-osmotic point with blood | toxicity [6]: toxicity observed | 10B uptake (murine melanoma model): increases the ^10 B uptake

OC[C@@H](O)[C@H](O)[C@@H](O)CO [Xylitol]
log Keq (complex formation constant, polyols) [1]: 2.5

O=CC[C@@H](O)[C@H](O)[C@H](O)CO [2-Deoxyglucose]
log Keq (complex formation constant, monosaccharides) [1]: < 0

O=C[C@H](O)[C@@H](O)[C@@H](O)[C@H](O)CO [Galactose]
log Keq (complex formation constant, monosaccharides) [1]: 1.6

CO[C@H]1O[C@H](CO)[C@@H](O)[C@H](O)[C@H]1O [methyl-α-glucopyranoside]
binding with l-p-BPA [1]: complete lack of binding | change in the 1H NMR spectrum of l-p-BPA [1]: no change

OC[C@@H](O)[C@@H](O)[C@H](O)[C@H](O)CO [Mannitol]
log Keq (complex formation constant, polyols) [1]: 2.7

OC[C@@H](O)[C@@H](O)[C@H](O)[C@@H](O)CO [Sorbitol]
log Keq (complex formation constant, polyols) [1]: 3.2

N[C@@H](Cc1ccc(B(O)O)cc1)C(=O)O [p-BPA, p-Boronophenylalanine]
water solubility at physiological pH ([7]; pH 7.4, in words): poor water solubility | solubility in water ([7]; water): 1.6 mg/mL (≈ 7.66 mM) | p-BPA remaining in solution ([8]; fructose, sorbose, or large excess of another carbohydrate or polyol): all of the p-BPA remains in solution | p-BPA present as its sodium carboxylate ([8]; remainder as free acid): approximately 90% | uptake by melanoma cells (melanoma cells): selectively taken up by melanoma cells
